Measured values published in patent publication US20240132514A1, “PYRIDINE DERIVATIVES AS MODULATORS OF SORTILIN ACTIVITY” (Insusense ApS, priority 2021, published 2024).
Where two headings read alike, the source gives them in different places.

Biological target: human full length sortilin (Homo sapiens (Human), UniProt Q99523)
Assay: Human sortilin neurotensin scintillation proximity (SPA) binding assay
Settings: for IC50: 150 nM His-tagged human full length sortilin, SPA
Description: NTS, which is a 13 amino acid neuropeptide, is a sortilin ligand. The IC50 is a measure of the amount of the compound required to inhibit the binding of NTS to sortilin by 50%. The skilled person will recognise that the lower the IC50 value, the less of the compound needed to achieve the desired effect, and as a result, the chances of undesirable off-target effects are reduced.
The compound affinity was determined by measuring the inhibition of ^3H-neurotensin and/or ^125I-neurotensin binding to human full length sortilin using a Scintillation Proximity Assay (SPA) format.
The human sortilin SPA binding assay was performed in a total volume of 40 μl in 50 mM HEPES pH 7.4 assay buffer containing 100 mM NaCl, 2.0 mM CaCl2, 0.1% (v:v) BSA and 0.1% (v:v)Tween-20. Varying concentration of test compounds where pre-incubated for 30 min at RT with 150 nM of c-terminal hexahistidine- human full length Sortilin (RD Systems). […] 0.1 mg PVT copper HIS-tag imaging beads (Perkin Elmer) was added and the plate was agitated at 400 rpm in the dark for 1 hr. The SPA beads were allowed a minimum 2 hours settling time before the plate was read on a Hidex Sense 425-301 scintillation reader with a 45 sec exposure time. Concentration-response evaluation of test compounds was performed with 8 different concentrations of compound (covering 3 decades). […] The compound potency results were converted to inhibition constant Ki values (nM) derived from calculated IC50 values converted to Ki values using the Cheng-Prusoff equation (Ki=IC50/(I+(L/Kd))).

[1] = 5 nM [3H]-Neurotensin radioligand, read-out: hSortilin NTS Binding IC50 (nM) [3H] neurotensin

Sequence of human full length sortilin (Q99523 78-755): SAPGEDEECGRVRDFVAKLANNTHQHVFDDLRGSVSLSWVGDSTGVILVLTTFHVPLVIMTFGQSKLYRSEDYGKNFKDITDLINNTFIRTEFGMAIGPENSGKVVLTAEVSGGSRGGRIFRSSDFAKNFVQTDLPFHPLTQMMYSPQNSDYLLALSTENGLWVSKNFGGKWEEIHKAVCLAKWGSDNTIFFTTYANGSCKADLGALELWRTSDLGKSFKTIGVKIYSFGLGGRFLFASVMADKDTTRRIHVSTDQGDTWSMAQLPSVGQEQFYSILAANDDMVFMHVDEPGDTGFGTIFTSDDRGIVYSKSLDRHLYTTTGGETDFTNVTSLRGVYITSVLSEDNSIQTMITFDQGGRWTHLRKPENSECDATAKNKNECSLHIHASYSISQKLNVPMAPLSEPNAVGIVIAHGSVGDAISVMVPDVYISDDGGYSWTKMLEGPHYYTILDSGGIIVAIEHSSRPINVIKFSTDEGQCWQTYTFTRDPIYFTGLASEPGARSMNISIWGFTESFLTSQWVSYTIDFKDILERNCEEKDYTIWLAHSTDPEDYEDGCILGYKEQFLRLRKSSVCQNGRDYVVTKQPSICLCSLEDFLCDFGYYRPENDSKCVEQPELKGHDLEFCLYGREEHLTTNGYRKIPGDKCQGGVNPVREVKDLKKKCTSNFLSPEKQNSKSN

IC50 [1] [nM]	Ki (derived from IC50 using the Cheng-Prusoff equation, Kd of neurotensin […], read-out: hSortilin Ki) [nM]	IC50 (0.35 nM [125I]-Neurotensin radioligand, read-out: hSortilin NTS binding IC50 (nM) [125I] neurotensin) [nM]	SMILES
340	340		O=C(O)c1cc(C(F)(F)F)ccc1C(=O)Nc1cccc(CO)n1 [Example 3, 2-{[6-(hydroxymethyl)pyridin-2-yl]carbamoyl}-5-(trifluoromethyl)benzoic acid]
725			COCc1cccc(NC(=O)c2ccc(C(F)(F)F)cc2C(=O)O)n1 [Example 24, 2-{[6-(methoxymethyl)pyridin-2-yl]carbamoyl}-5-(trifluoromethyl)benzoic acid]
60		105	O=C(O)c1cc(C(F)(F)F)ccc1C(=O)Nc1ccc2c(n1)COCC2 [Example 2, 2-({5H,6H,8H-pyrano[3,4-b]pyridin-2-yl}carbamoyl)-5-(trifluoromethyl)benzoic acid]
